For this data set, the target named is T1, SFRP-1 (Homo sapiens, UniProt Q8N474).
T1 sequence (Q8N474 32-314): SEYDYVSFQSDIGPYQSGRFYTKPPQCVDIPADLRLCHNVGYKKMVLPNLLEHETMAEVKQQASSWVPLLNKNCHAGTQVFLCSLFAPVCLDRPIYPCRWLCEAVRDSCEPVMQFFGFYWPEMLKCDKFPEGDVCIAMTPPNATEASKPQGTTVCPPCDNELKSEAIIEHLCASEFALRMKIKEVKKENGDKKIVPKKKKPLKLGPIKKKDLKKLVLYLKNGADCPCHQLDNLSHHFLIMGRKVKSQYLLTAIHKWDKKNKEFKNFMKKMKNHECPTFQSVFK
The data set can be described thus: Cell-based assay for in vitro measurement of SFRP-1/SARP2 antagonist activity (U2OS cells co-transfected with 16x TCF-tk-Luciferase reporter, Wnt and hSFRP-1).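 For all read-outs here: U2OS cells co-transfected with a TCF-tk luciferase reporter, a Wnt vector, hSFRP-1 or empty vector and CMV-βgal, luciferase luminescence read in cell lysates alongside βgal activity.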 Conditions: for fold induction at 15 µM / fold induction at 20 µM: U2OS.

Setting [1] is: read-out: Fold Induction with SFRP-1, Conc 15 μM, with SFRP-1, fold induction over SFRP-1 control, single dose.
Where [2] appears, read: read-out: Fold Induction without SFRP-1, Conc 15 μM, without SFRP-1, single dose.
Setting [3] is: read-out: Fold Induction with SFRP-1, Conc 20 μM, with SFRP-1, fold induction over SFRP-1 control, single dose.
Where [4] appears, read: read-out: Fold Induction without SFRP-1, Conc 20 μM, without SFRP-1, single dose.

Like-named read-outs stand apart in the source and are kept apart here.

`COCCNS(=O)(=O)c1cc(S(=O)(=O)c2ccccc2)ccc1C` [Example 217, N-(2-methoxyethyl)-2-methyl-5-(phenylsulfonyl)benzenesulfonamide]: the fold induction at 15 µM under setting [1] stood at 2.5 and the fold induction at 15 µM under setting [2] was determined as 1.

On to `CCN(CC)CCCNS(=O)(=O)c1cc(S(=O)(=O)c2ccccc2)ccc1C` [Example 218, N-[3-(diethylamino)propyl]-2-methyl-5-(phenylsulfonyl)benzenesulfonamide], for which the fold induction at 15 µM under setting [1] amounted to 2.2 and the fold induction at 15 µM under setting [2] worked out at 1.2.

Regarding `Cc1ccc(S(=O)(=O)c2ccccc2)cc1S(=O)(=O)NCCCN1CCCC1` [Example 220, 2-methyl-5-(phenylsulfonyl)-N-(3-pyrrolidin-1-ylpropyl)benzenesulfonamide], the fold induction at 15 µM worked out at 3.6 under setting [1] and 1.8 under setting [2].

For the compound `Cc1ccc(S(=O)(=O)c2ccccc2)cc1S(=O)(=O)NCCCN1CCN(C)CC1` [Example 221, 2-methyl-N-[3-(4-methylpiperazin-1-yl)propyl]-5-(phenylsulfonyl)benzenesulfonamide], the fold induction at 15 µM under setting [1] worked out at 3 and the fold induction at 15 µM under setting [2] was 1.2.

On to `CCc1ccc(S(=O)(=O)c2ccccc2)cc1S(=O)(=O)NCCC(=O)OC` [Example 222, methyl N-{[2-ethyl-5-(phenylsulfonyl)phenyl]sulfonyl}-beta-alaninate], for which the fold induction at 15 µM is, setting by setting: under setting [1], 2.4; under setting [2], 0.9.

Take `CCc1ccc(S(=O)(=O)c2ccccc2)cc1S(=O)(=O)NCCc1c[nH]cn1` [Example 225, 2-ethyl-N-[2-(1H-imidazol-4-yl)ethyl]-5-(phenylsulfonyl)benzenesulfonamide]: the fold induction at 15 µM reads like this: under setting [1], 3.1; under setting [2], 0.9.

For `CCc1ccc(S(=O)(=O)c2ccccc2)cc1S(=O)(=O)NCCOC` [Example 229, 2-ethyl-N-(2-methoxyethyl)-5-(phenylsulfonyl)benzenesulfonamide], the fold induction at 15 µM stood at 2.6 under setting [1] and 0.8 under setting [2].

Regarding `CCc1ccc(S(=O)(=O)c2ccccc2)cc1S(=O)(=O)NCCCN1CCCC1` [Example 232, 2-ethyl-5-(phenylsulfonyl)-N-(3-pyrrolidin-1-ylpropyl)benzenesulfonamide], the fold induction at 15 µM worked out at 4.2 under setting [1] and 1.6 under setting [2].

Take `COC(=O)CCNS(=O)(=O)c1cc(S(=O)(=O)c2ccccc2)ccc1OC` [Example 233, methyl N-{[2-methoxy-5-(phenylsulfonyl)phenyl]sulfonyl}-beta-alaninate]: the fold induction at 15 µM by setting is: under setting [1], 1.5; under setting [2], 1.

In the case of `COc1ccc(S(=O)(=O)c2ccccc2)cc1S(=O)(=O)NCCc1ccccn1` [Example 234, 2-methoxy-5-(phenylsulfonyl)-N-(2-pyridin-2-ylethyl)benzenesulfonamide], the fold induction at 15 µM reads like this: under setting [1], 1.2; under setting [2], 1.

Turning to `COc1ccc(S(=O)(=O)c2ccccc2)cc1S(=O)(=O)NCCc1ccncc1` [Example 235, 2-methoxy-5-(phenylsulfonyl)-N-(2-pyridin-4-ylethyl)benzenesulfonamide], the fold induction at 15 µM reads like this: under setting [1], 1.2; under setting [2], 0.9.

For the compound `COc1ccc(S(=O)(=O)c2ccccc2)cc1S(=O)(=O)NCCc1c[nH]cn1` [Example 236, N-[2-(1H-imidazol-4-yl)ethyl]-2-methoxy-5-(phenylsulfonyl)benzenesulfonamide], the fold induction at 15 µM by setting is: under setting [1], 1.2; under setting [2], 1.

As to `COc1ccc(S(=O)(=O)c2ccccc2)cc1S(=O)(=O)NCCN1CCOCC1` [Example 237, 2-methoxy-N-(2-morpholin-4-ylethyl)-5-(phenylsulfonyl)benzenesulfonamide], under “Conc 15 μM, with SFRP-1, fold induction over SFRP-1 control, single dose”, the “Fold Induction with SFRP-1” value was 1.4 fold. In addition, the fold induction at 15 µM under setting [1] amounted to 1.1 and the fold induction at 15 µM under setting [2] came out at 0.9.

As for `COCCCNS(=O)(=O)c1cc(S(=O)(=O)c2ccccc2)ccc1OC` [Example 238, 2-methoxy-N-(3-methoxypropyl)-5-(phenylsulfonyl)benzenesulfonamide], the fold induction at 15 µM reads like this: under setting [1], 1.3; under setting [2], 0.9.

On to `COc1ccc(S(=O)(=O)c2ccccc2)cc1S(=O)(=O)NCCCN(C)C` [Example 239, N-[3-(dimethylamino)propyl]-2-methoxy-5-(phenylsulfonyl)benzenesulfonamide], for which the fold induction at 15 µM by setting is: under setting [1], 1.2; under setting [2], 1.

Regarding `COCCNS(=O)(=O)c1cc(S(=O)(=O)c2ccccc2)ccc1OC` [Example 240, 2-methoxy-N-(2-methoxyethyl)-5-(phenylsulfonyl)benzenesulfonamide], the fold induction at 15 µM by setting is: under setting [1], 1.4; under setting [2], 0.9.

As for `CCN(CC)CCCNS(=O)(=O)c1cc(S(=O)(=O)c2ccccc2)ccc1OC` [Example 241, N-[3-(diethylamino)propyl]-2-methoxy-5-(phenylsulfonyl)benzenesulfonamide], the fold induction at 15 µM is 1.8 under setting [1] and 1.1 under setting [2].

Regarding `COc1ccc(S(=O)(=O)c2ccccc2)cc1S(=O)(=O)NCCCn1ccnc1` [Example 242, N-[3-(1H-imidazol-1-yl)propyl]-2-methoxy-5-(phenylsulfonyl)benzenesulfonamide], the fold induction at 15 µM by setting is: under setting [1], 2.3; under setting [2], 1.2.

Turning to `COc1ccc(S(=O)(=O)c2ccccc2)cc1S(=O)(=O)NCCCN1CCCC1` [Example 243, 2-methoxy-5-(phenylsulfonyl)-N-(3-pyrrolidin-1-ylpropyl)benzenesulfonamide], the fold induction at 15 µM by setting is: under setting [1], 2.4; under setting [2], 1.9.

As for `Cc1ccc(S(=O)(=O)c2ccccc2)cc1S(=O)(=O)NCCCc1ccccc1` [Example 244, 2-methyl-N-(3-phenylpropyl)-5-(phenylsulfonyl)benzenesulfonamide], the fold induction at 15 µM under setting [1] was 1.3 and the fold induction at 15 µM under setting [2] was 1.1.

Turning to `CCc1ccc(S(=O)(=O)c2ccccc2)cc1S(=O)(=O)NCCCc1ccccc1` [Example 245, 2-ethyl-N-(3-phenylpropyl)-5-(phenylsulfonyl)benzenesulfonamide], the fold induction at 15 µM by setting is: under setting [1], 1.9; under setting [2], 1.2.

In the case of `Cc1ccc(S(=O)(=O)c2ccccc2)cc1S(=O)(=O)NC1Cc2ccccc2C1` [Example 246, N-2,3-dihydro-1H-inden-2-yl-2-methyl-5-(phenylsulfonyl)benzenesulfonamide], the fold induction at 20 µM came out at 2.2 under setting [3] and 0.8 under setting [4].

Turning to `Cc1ccc(S(=O)(=O)c2ccccc2)cc1S(=O)(=O)N[C@H]1C[C@@H]1c1ccccc1` [Example 247, 2-methyl-N-[(1S,2R)-2-phenylcyclopropyl]-5-(phenylsulfonyl)benzenesulfonamide], the fold induction at 20 µM under setting [3] turned out to be 1.7 and the fold induction at 20 µM under setting [4] came out at 0.9.

Turning to `Cc1ccc(S(=O)(=O)c2ccccc2)cc1S(=O)(=O)NC[C@H](C)c1ccccc1` [Example 248, 2-methyl-N-[(2R)-2-phenylpropyl]-5-(phenylsulfonyl)benzenesulfonamide], the fold induction at 20 µM under setting [3] turned out to be 2.8 and the fold induction at 20 µM under setting [4] is 0.9.

For `Cc1ccc(S(=O)(=O)c2ccc(F)cc2)cc1S(=O)(=O)NC1Cc2ccccc2C1` [Example 249, N-2,3-dihydro-1H-inden-2-yl-5-[(4-fluorophenyl)sulfonyl]-2-methylbenzenesulfonamide], the fold induction at 20 µM stood at 1.9 under setting [3] and 0.8 under setting [4].

With `Cc1ccc(S(=O)(=O)c2ccc(F)cc2)cc1S(=O)(=O)N[C@H]1C[C@@H]1c1ccccc1` [Example 250, 5-[(4-fluorophenyl)sulfonyl]-2-methyl-N-[(1S,2R)-2-phenylcyclopropyl]benzenesulfonamide], the fold induction at 20 µM was 1.4 under setting [3] and 0.9 under setting [4].

Take `Cc1ccc(S(=O)(=O)c2ccc(F)cc2)cc1S(=O)(=O)NC[C@H](C)c1ccccc1` [Example 251, 5-[(4-fluorophenyl)sulfonyl]-2-methyl-N-[(2R)-2-phenylpropyl]benzenesulfonamide]: the fold induction at 20 µM reads like this: under setting [3], 3; under setting [4], 0.8.

For `Cc1ccc(S(=O)(=O)c2ccc(C)c(S(=O)(=O)NC3Cc4ccccc4C3)c2)cc1` [Example 252, N-2,3-dihydro-1H-inden-2-yl-2-methyl-5-[(4-methylphenyl)sulfonyl]benzenesulfonamide], the fold induction at 20 µM came to 2.6 under setting [3] and 1 under setting [4].

In the case of `Cc1ccc(S(=O)(=O)c2ccc(C)c(S(=O)(=O)N[C@H]3C[C@@H]3c3ccccc3)c2)cc1` [Example 253, 2-methyl-5-[(4-methylphenyl)sulfonyl]-N-[(1S,2R)-2-phenylcyclopropyl]benzenesulfonamide], the fold induction at 20 µM runs as follows: under setting [3], 1.4; under setting [4], 0.9.

Turning to `Cc1ccc(S(=O)(=O)c2ccc(C)c(S(=O)(=O)NC[C@H](C)c3ccccc3)c2)cc1` [Example 254, 2-methyl-5-[(4-methylphenyl)sulfonyl]-N-[(2R)-2-phenylpropyl]benzenesulfonamide], the fold induction at 20 µM reads like this: under setting [3], 3; under setting [4], 1.
